Data reported in publication PMC11089503, “Exploring Subsite Selectivity within Plasmodium vivaxN-Myristoyltransferase Using Pyrazole-Derived Inhibitors” (Journal of Medicinal Chemistry, 2024).
Read-outs that look alike come from different tables or passages of the source.

Experiments:
[1] = biological target: T1, HsNMT Isoform 1 (Homo sapiens, UniProt P30419); assay: NMT activity assay (CPM fluorescence detection of free CoA), HsNMT
T1 sequence (P30419 1-496): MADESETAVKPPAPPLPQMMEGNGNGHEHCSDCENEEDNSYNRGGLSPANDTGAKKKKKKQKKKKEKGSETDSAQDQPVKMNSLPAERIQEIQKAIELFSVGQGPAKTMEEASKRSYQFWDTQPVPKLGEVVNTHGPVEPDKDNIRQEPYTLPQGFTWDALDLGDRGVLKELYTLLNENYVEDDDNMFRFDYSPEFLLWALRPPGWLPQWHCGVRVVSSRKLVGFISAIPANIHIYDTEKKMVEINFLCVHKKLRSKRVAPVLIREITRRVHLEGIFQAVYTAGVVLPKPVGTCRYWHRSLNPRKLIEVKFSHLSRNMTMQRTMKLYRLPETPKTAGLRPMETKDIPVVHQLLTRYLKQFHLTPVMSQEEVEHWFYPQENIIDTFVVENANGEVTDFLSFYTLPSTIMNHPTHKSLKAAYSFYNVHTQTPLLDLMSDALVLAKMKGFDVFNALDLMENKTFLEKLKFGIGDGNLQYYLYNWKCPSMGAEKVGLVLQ

[2] = biological target: T2, PvNMT (Plasmodium vivax, UniProt A5K1A2); assay: NMT activity assay (CPM fluorescence detection of free CoA), PvNMT
T2 sequence (A5K1A2 entry or part of it): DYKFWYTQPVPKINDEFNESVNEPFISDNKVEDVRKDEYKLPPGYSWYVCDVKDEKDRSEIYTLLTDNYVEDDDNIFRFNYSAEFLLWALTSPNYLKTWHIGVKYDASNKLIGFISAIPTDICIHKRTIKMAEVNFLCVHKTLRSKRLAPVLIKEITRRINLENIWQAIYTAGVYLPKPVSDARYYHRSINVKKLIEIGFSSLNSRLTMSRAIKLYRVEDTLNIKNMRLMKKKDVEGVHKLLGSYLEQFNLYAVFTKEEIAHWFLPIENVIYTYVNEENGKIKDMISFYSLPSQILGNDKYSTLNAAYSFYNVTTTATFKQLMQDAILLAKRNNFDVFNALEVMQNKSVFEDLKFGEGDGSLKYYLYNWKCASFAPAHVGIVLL

[3] = biological target: T2, PvNMT; conditions: cited from earlier work
[4] = system: HsNMT1/2; set-up: method as in PMID 29760414; conditions: cited from earlier work

Question: What does the source list for `Cc1c(CCOc2ccccc2-c2ccnc(N3CCNCC3)c2)c(C(=O)Nc2cccnc2)nn1C` [Compound 8a, 1,5-Dimethyl-4-(2-(2-(2-(piperazin-1-yl)pyridin-4-yl)phenoxy)ethyl)-N-(pyridin-3-yl)-1H-pyrazole-3-carboxamide]?
Answer: IC50 [1]: 2520 nM; IC50 [2]: 506 nM

Question: What does the source list for `Cc1c(CCOc2ccccc2-c2ccnc(N3CCNCC3)c2)c(C(=O)N2CCOCC2)nn1C` [Compound 8b, (1,5-Dimethyl-4-(2-(2-(2-(piperazin-1-yl)pyridin-4-yl)phenoxy)ethyl)-1H-pyrazol-3-yl)(morpholino)methanone]?
Answer: IC50 [1]: 763 nM; IC50 [2]: 24 nM

Question: Which results are given for `Cc1c(CCOc2ccccc2-c2ccnc(N3CCNCC3)c2)c(C(=O)NCC(=O)O)nn1C` [Compound 8c, (1,5-Dimethyl-4-(2-(2-(2-(piperazin-1-yl)pyridin-4-yl)phenoxy)ethyl)-1H-pyrazole-3-carbonyl)glycine]?
Answer: IC50 [1]: 116 nM; IC50 [2]: 147 nM

Question: Which IC50 [1] does the source give for `Cc1c(CCOc2ccccc2-c2ccnc(N3CCNCC3)c2)c(C(=O)NCCN)nn1C` [Compound 8f, N-(2-Aminoethyl)-1,5-dimethyl-4-(2-(2-(2-(piperazin-1-yl)pyridin-4-yl)phenoxy)ethyl)-1H-pyrazole-3-carboxamide] here?
Answer: 103 nM

Question: And the IC50 [2]?
Answer: 89 nM

Question: Which results are given for `CC(=O)CNC(=O)c1nn(C)c(C)c1CCOc1ccccc1-c1ccnc(N2CCNCC2)c1` [Compound 8g, 1,5-Dimethyl-N-(2-oxopropyl)-4-(2-(2-(2-(piperazin-1-yl)pyridin-4-yl)phenoxy)ethyl)-1H-pyrazole-3-carboxamide]?
Answer: IC50 [1]: 1590 nM; IC50 [2]: 32 nM; SI (enzyme selectivity) ([2]; calculated as HsNMT IC50/PvNMT IC50): > 31

Question: What does the source list for `Cc1c(CCOc2ccccc2-c2ccnc(N3CCNCC3)c2)c(C(=O)NCCO)nn1C` [Compound 8h, N-(2-Hydroxyethyl)-1,5-dimethyl-4-(2-(2-(2-(piperazin-1-yl)pyridin-4-yl)phenoxy)ethyl)-1H-pyrazole-3-carboxamide]?
Answer: IC50 [1]: 504 nM; IC50 [2]: 39 nM

Question: What does the source list for `COC(=O)CNC(=O)c1nn(C)c(C)c1CCOc1ccccc1-c1ccnc(N2CCNCC2)c1` [Compound 8i, Methyl (1,5-Dimethyl-4-(2-(2-(2-(piperazin-1-yl)pyridin-4-yl)phenoxy)ethyl)-1H-pyrazole-3-carbonyl)glycinate]?
Answer: IC50 [1]: 57 nM; IC50 [2]: 20 nM

Question: For `Cc1c(CCOc2cccnc2-c2ccnc(N3CCNCC3)c2)c(C(=O)Nc2cccnc2)nn1C` [Compound 9a, 1,5-Dimethyl-4-(2-((2′-(piperazin-1-yl)-[2,4′-bipyridin]-3-yl)oxy)ethyl)-N-(pyridin-3-yl)-1H-pyrazole-3-carboxamide], which IC50 [2] is on record?
Answer: 1020 nM

Question: With `Cc1c(CCOc2cccnc2-c2ccnc(N3CCNCC3)c2)c(C(=O)N2CCOCC2)nn1C` [Compound 9b, (1,5-Dimethyl-4-(2-((2′-(piperazin-1-yl)-[2,4′-bipyridin]-3-yl)oxy)ethyl)-1H-pyrazol-3-yl)(morpholino)methanone] as the compound, how does the IC50 [1] read?
Answer: 1650 nM

Question: And the IC50 [2]?
Answer: 46 nM

Question: What does the source list for `Cc1c(CCOc2cccnc2-c2ccnc(N3CCNCC3)c2)c(C(=O)NCC(=O)O)nn1C` [Compound 9c, (1,5-Dimethyl-4-(2-((2′-(piperazin-1-yl)-[2,4′-bipyridin]-3-yl)oxy)ethyl)-1H-pyrazole-3-carbonyl)glycine]?
Answer: IC50 [1]: 11100 nM; IC50 [2]: 230 nM

Question: Which results are given for `Cc1c(CCOc2cccnc2-c2ccnc(N3CCNCC3)c2)c(C(=O)NCC(N)=O)nn1C` [Compound 9d, N-(2-Amino-2-oxoethyl)-1,5-dimethyl-4-(2-((2′-(piperazin-1-yl)-[2,4′-bipyridin]-3-yl)oxy)ethyl)-1H-pyrazole-3-carboxamide]?
Answer: IC50 [1]: 11000 nM; IC50 [2]: 181 nM

Question: With `Cc1c(CCOc2ccc3ccccc3c2-c2ccnc(N3CCNCC3)c2)c(C(=O)Nc2cccnc2)nn1C` [Compound 10a, 1,5-Dimethyl-4-(2-((1-(2-(piperazin-1-yl)pyridin-4-yl)naphthalen-2-yl)oxy)ethyl)-N-(pyridin-3-yl)-1H-pyrazole-3-carboxamide] as the compound, how does the IC50 [2] read?
Answer: 5070 nM

Question: With `Cc1c(CCOc2ccc3ccccc3c2-c2ccnc(N3CCNCC3)c2)c(C(=O)N2CCOCC2)nn1C` [Compound 10b, (1,5-Dimethyl-4-(2-((1-(2-(piperazin-1-yl)pyridin-4-yl)naphthalen-2-yl)oxy)ethyl)-1H-pyrazol-3-yl)(morpholino)methanone] as the compound, how does the IC50 [1] read?
Answer: 11400 nM

Question: And the IC50 [2]?
Answer: 91 nM

Question: For `Cc1c(CCOc2ccc3ccccc3c2-c2ccnc(N3CCNCC3)c2)c(C(=O)NCC(=O)O)nn1C` [Compound 10c, (1,5-Dimethyl-4-(2-((1-(2-(piperazin-1-yl)pyridin-4-yl)naphthalen-2-yl)oxy)ethyl)-1H-pyrazole-3-carbonyl)glycine], which IC50 [2] is on record?
Answer: 1060 nM

Question: For `Cc1c(CCOc2ccc3ccccc3c2-c2ccnc(N3CCNCC3)c2)c(C(=O)NCC(N)=O)nn1C` [Compound 10d, N-(2-Amino-2-oxoethyl)-1,5-dimethyl-4-(2-((1-(2-(piperazin-1-yl)pyridin-4-yl)naphthalen-2-yl)oxy)ethyl)-1H-pyrazole-3-carboxamide], which IC50 [2] is on record?
Answer: 1000 nM

Question: Which IC50 [3] does the source give for `Cc1nn(C)c(C)c1CCOc1cc(F)ccc1-c1ccc2c(c1)c(CN(C)C)nn2C` [IMP-1002] here?
Answer: 3 nM

Question: Which “HsNMT1/2 IC50” value [4] does the source give for `Cc1nn(C)c(C)c1CCOc1c(-c2ccc3c(c2)c(CN(C)C)nn3C)ccc(F)c1F` [IMP-1088] here?
Answer: picomolar
